Reference: ChEMBL document CHEMBL1138903, “Secondary amides of sulfonylated 3-amidinophenylalanine. New potent and selective inhibitors of matriptase” (J Med Chem, 2006)

How the values were obtained:
Prothrombin [1] = target: T1, Prothrombin (Homo sapiens, UniProt P00734); assay: Inhibition of thrombin
[2] = target: Coagulation factor VII/tissue factor (Homo sapiens) (UniProt P08709+P13726); conditions: Blood
Description: Anticoagulant activity in blood by PT assay

Coagulation factor X = Coagulation factor X (Homo sapiens, UniProt P00742); assay: Inhibition of f10a
Prothrombin [3] = target: T1, Prothrombin; conditions: Blood
[4] = target: Urokinase-type plasminogen activator (Homo sapiens, UniProt P00749); assay: Inhibition of uPA
[5] = target: T2, Suppressor of tumorigenicity 14 protein (Homo sapiens, UniProt Q9Y5Y6)
T2 sequence (Q9Y5Y6 whole entry): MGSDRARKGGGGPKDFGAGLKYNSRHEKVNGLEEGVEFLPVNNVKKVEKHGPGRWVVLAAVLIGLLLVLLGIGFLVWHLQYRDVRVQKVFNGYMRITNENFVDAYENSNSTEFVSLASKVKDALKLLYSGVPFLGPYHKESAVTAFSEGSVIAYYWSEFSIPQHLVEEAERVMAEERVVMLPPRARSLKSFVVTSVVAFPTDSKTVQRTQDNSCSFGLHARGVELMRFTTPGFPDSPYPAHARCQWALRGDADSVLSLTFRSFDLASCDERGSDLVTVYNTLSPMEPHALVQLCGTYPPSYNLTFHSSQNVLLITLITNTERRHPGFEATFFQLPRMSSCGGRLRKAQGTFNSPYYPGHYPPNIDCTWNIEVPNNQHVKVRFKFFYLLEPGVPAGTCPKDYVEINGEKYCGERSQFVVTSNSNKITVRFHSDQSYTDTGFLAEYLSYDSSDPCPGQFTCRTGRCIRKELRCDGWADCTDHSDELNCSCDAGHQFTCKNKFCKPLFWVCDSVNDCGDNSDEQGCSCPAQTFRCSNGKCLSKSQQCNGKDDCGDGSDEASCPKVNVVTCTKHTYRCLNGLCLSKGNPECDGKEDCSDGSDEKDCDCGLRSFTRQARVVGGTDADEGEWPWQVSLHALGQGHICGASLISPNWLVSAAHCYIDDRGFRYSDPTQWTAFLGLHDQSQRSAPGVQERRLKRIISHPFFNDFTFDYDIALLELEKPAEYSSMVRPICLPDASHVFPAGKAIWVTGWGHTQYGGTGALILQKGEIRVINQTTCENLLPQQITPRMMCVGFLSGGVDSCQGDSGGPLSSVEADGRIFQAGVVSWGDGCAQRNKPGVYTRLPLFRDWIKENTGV

Plasminogen = Plasminogen (Homo sapiens, UniProt P00747); assay: Inhibition of plasmin
[6] = Anticoagulant activity in blood by aPTT assay; assay type: functional, Homo sapiens

Coagulation factor X, sequence (P00742 41-179 limits assumed): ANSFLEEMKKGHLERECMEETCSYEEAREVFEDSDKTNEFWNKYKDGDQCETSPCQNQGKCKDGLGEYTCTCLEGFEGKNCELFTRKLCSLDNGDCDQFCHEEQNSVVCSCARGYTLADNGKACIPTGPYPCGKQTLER
Coagulation factor X, sequence (P00742 235-488 limits assumed): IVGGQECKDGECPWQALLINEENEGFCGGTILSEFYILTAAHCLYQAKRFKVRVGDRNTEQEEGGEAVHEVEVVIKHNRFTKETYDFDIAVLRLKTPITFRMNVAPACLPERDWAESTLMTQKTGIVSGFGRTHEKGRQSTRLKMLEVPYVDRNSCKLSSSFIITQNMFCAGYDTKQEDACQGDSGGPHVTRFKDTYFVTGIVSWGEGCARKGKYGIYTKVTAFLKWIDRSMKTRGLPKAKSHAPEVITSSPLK
Plasminogen, sequence (P00747 97-580 limits assumed): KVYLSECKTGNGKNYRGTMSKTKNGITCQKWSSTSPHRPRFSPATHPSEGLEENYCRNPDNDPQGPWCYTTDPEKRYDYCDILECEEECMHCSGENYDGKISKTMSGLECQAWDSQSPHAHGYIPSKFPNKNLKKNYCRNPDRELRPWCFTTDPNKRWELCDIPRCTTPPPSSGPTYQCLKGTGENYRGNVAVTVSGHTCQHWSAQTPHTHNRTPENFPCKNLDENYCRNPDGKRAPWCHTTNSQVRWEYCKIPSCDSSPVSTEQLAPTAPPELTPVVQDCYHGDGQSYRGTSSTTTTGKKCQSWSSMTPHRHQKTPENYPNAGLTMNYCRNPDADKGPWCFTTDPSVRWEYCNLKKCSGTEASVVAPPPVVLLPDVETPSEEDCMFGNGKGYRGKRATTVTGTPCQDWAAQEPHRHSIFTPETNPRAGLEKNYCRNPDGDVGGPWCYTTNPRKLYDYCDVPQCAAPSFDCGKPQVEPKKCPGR
Plasminogen, sequence (P00747 581-810 limits assumed): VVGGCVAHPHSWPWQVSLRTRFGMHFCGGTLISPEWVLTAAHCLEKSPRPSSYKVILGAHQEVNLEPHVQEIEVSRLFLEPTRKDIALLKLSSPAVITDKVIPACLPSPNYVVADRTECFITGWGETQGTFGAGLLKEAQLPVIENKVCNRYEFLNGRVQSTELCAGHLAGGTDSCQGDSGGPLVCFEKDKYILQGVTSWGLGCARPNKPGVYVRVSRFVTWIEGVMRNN

Compound | Ki (Prothrombin [1]) [nM] | IC200 [2] [µM] | Ki (Coagulation factor X) [nM] | IC200 (Prothrombin [3]) [µM] | Ki [4] [nM] | Ki [5] [nM] | Ki (Plasminogen) [nM] | IC200 [6] [µM]
N=C(N)NCCC1CCN(C(=O)[C@H](Cc2cccc(C(=N)N)c2)NS(=O)(=O)c2ccc(Oc3ccccc3)nc2)CC1 | 99 | 1.6 | 2200 | 0.27 | 3400 | 13 | 1400 | 1.5
N=C(N)c1cccc(C[C@H](NS(=O)(=O)c2cccc(NC(=O)CCN)c2)C(=O)N2CCC(CCCN=C(N)N)CC2)c1 | 4000 | > 10 | 13000 | > 10 | 1800 | 1.5 | 2800 | >10
N=C(N)c1cccc(C[C@H](NS(=O)(=O)c2ccc(NC(=O)CCN)cc2)C(=O)N2CCC(CCN)CC2)c1 | 8800 |  | 15000 |  | 820 | 28 | 1200 | 
N=C(N)c1cccc(C[C@H](NS(=O)(=O)CCc2cccc3ccccc23)C(=O)N2CCN(C(=O)CCN=C(N)N)CC2)c1 | 1500 |  | 80000 |  | 56000 | 690 | 4200 | 
N=C(N)NCCC(=O)N1CCN(C(=O)[C@H](Cc2cccc(C(=N)N)c2)NS(=O)(=O)c2cccc3ccccc23)CC1 | 2500 |  | 5100 |  | 19000 | 340 | 3700 | 
CC(C)c1cc(C(C)C)c(S(=O)(=O)N[C@@H](Cc2cccc(C(=N)N)c2)C(=O)N2CCCN(C(=O)C3CCN(C(=N)N)CC3)CC2)c(C(C)C)c1 | 2500 |  | 4100 |  | 4600 | 50 | 330 | 
CC(C)c1cc(C(C)C)c(S(=O)(=O)N[C@@H](Cc2cccc(C(=N)N)c2)C(=O)N2CCC(C(=O)NCCN)CC2)c(C(C)C)c1 | 16000 |  | 6300 |  | 1200 | 380 | 940 | 

Further lines, with some results ahead:

Ki (Prothrombin [1]) [nM] | IC200 [2] [µM] | Ki (Coagulation factor X) [nM] | IC200 (Prothrombin [3]) [µM] | Ki [4] [nM] | Ki [5] [nM] | Ki (Plasminogen) [nM] | Compound | IC200 [6] [µM]
1200 |  | 9000 |  | 1500 | 330 | 820 | CC(C)c1cc(C(C)C)c(S(=O)(=O)NC(Cc2cccc(C(=N)N)c2)C(=O)N2CCN(C(=O)CN=C(N)N)CC2)c(C(C)C)c1 (racemic) | 
600 |  | 66000 |  | 2100 | 160 | 730 | N=C(N)c1cccc(C[C@H](NS(=O)(=O)c2ccc3ccccc3c2)C(=O)N2CCC(CCCN)CC2)c1 | 
210 |  | 1000 |  | 2300 | 38 | 760 | N=C(N)NCCC1CCN(C(=O)[C@H](Cc2cccc(C(=N)N)c2)NS(=O)(=O)c2ccc(Oc3ccccc3)cc2)CC1 | 
9400 |  | 13000 |  | 1100 | 140 | 640 | CC(C)c1cc(C(C)C)c(S(=O)(=O)N[C@@H](Cc2cccc(C(=N)N)c2)C(=O)N2CCN(C(=O)CCCN)CC2)c(C(C)C)c1 | 
170 |  | 34000 |  | 2100 | 42 | 1200 | N=C(N)NCCCC1CCN(C(=O)[C@H](Cc2cccc(C(=N)N)c2)NS(=O)(=O)c2ccc3ccccc3c2)CC1 | 
120 |  | 2300 |  | 10500 | 89 | 780 | N=C(N)NCCC(=O)N1CCN(C(=O)[C@H](Cc2cccc(C(=N)N)c2)NS(=O)(=O)c2ccc(C3CCCCC3)cc2)CC1 | 
4000 |  | 2000 |  | 1200 | 4.2 | 1800 | N=C(N)NCCC(=O)Nc1cccc(S(=O)(=O)N[C@@H](Cc2cccc(C(=N)N)c2)C(=O)N2CCC(CCNC(=N)N)CC2)c1 | 
20000 |  | 5000 |  | 620 | 140 | 1800 | CC(C)c1cc(C(C)C)c(S(=O)(=O)N[C@@H](Cc2cccc(C(=N)N)c2)C(=O)N2CCC(C(=O)NCCN=C(N)N)CC2)c(C(C)C)c1 | 
